According to US10654843B2, “LMP7 inhibitors” (PRINCIPIA BIOPHARMA INC., priority 2014, dated 2020):
Read-outs that look alike come from different tables or passages of the source.

Experiments:
[1] = molecular target: immunoproteasome (LMP7/B5i) (Homo sapiens, UniProt P20618+P28062); experiment: Caliper-based proteasome assay, immunoproteasome chymotrypsin-like activity; type: biochemical; conditions: human recombinant immunoproteasome 0.3 nM, FAM-labeled peptide substrate 1 μM, room temperature 3 h
Description: (§1) A Caliper-based proteasome assay (Caliper Life Sciences, Hopkinton, Mass.) was used to measure inhibition of the chymotrypsin-like activity of both immunoproteasome (LMP7/B5i) and the constitutive proteasome (B5c) for a compound of Formula (I). Serial dilutions of test compounds were incubated with either human recombinant immunoproteasome or constitutive proteasome (0.3 nM enzyme) and a carboxyfluorescein (FAM)-labeled peptide substrate FAM-TYETFKSIMKKSPF-NH2 (1 μM) at room temperature for 3 h. The reaction buffer was 20 mM Hepes pH 7.4, 0.01% bovine serum albumin, 0.015% SDS, 0.5 mM EDTA, 1% DMSO. The reaction was then terminated with a buffer containing the known proteasome inhibitor carfilzomib at a concentration of 5 uM. The peptide cleavage reaction product was quantified on a Caliper LabChip 3000. Percent inhibition was calculated for each compound dilution and the concentration that produced 50% inhibition was calculated. This value is presented as the IC50.

[2] = molecular target: constitutive proteasome (B5c) (Homo sapiens, UniProt P20618+P28074); experiment: Caliper-based proteasome assay, constitutive proteasome chymotrypsin-like activity; type: biochemical; conditions: human recombinant constitutive proteasome 0.3 nM, FAM-labeled peptide substrate 1 μM, room temperature 3 h
Description: as §1

[3] = molecular target: T1, proteasome activity in HT-29 cells (enriched in constitutive proteasome) (Homo sapiens, UniProt P28074); experiment: Inhibition of proteasome activity in cells (Proteasome-Glo), HT-29; type: cell-based; conditions: 2 hr incubation, Suc-LLVY-aminoluciferin, read-out: HT29 IC50
T1 construct: endogenous in cells; host or cells: HT-29
Description: (§2) The cell-based effects of the compound of the present disclosure on immunoproteasome were determined by measuring inhibition of proteasome activity in cells using the Proteasome-Glo™ Cell-Based Reagent (Promega, Madison Wis). The Proteasome-Glo™ assay contains a specific luminogenic proteasome substrate in a buffer optimized for cell permeabilization, proteasome activity, and luciferase activity. For the chymotrypsin-like activity, the peptide substrate is Suc-LLVY-aminoluciferin (Succinyl-leucine-leucine-valine-tyrosine-aminoluciferin). Cleavage of the substrate by proteasome results in luminescent signal which is proportional to the proteasome activity. The cell line THP-1 (a monocytic leukemia cell line enriched in immunoproteasome), the cell line HT-29 (a colorectal adenocarcinoma cell line enriched in constitutive proteasome), and primary human peripheral blood mononuclear cells (PBMC) were used to assess proteasome activity. Cells were seeded in a 96-well plate at 10,000 cells per well in RPMI 1640 high glucose medium with 10% fetal bovine serum (FBS). Compound dilutions were added to cells starting at a concentration of 5 uM and decreasing in tripling dilutions. The final DMSO concentration was 1%. The concentration range was adjusted as needed for compounds of different potencies. The cells treated with compounds were incubated for 2 hr at 37° C. in 5% CO2. At the end of the 2 hour incubation period, cells were transferred to white 384 well assay plates. 20 uL of Proteasome-Glo™ Reagent was added to each well and incubated for 10 minutes at room temperature. The plate was read in the Analyst HT instrument (Molecular Devices, Sunnyvale, Calif.) using luminescence mode. The percent inhibition of activity was plotted as a function of log compound concentration. The IC50 was then calculated for each compound using Prism software from GraphPad Software Inc. (San Diego, Calif).

[4] = molecular target: T2, proteasome activity in primary human peripheral blood mononuclear cells (PBMC) (Homo sapiens, UniProt P28062); experiment: Inhibition of proteasome activity in cells (Proteasome-Glo), PBMC; type: cell-based; conditions: 2 hr incubation, Suc-LLVY-aminoluciferin
T2 construct: endogenous in cells; host or cells: primary human PBMC
Description: as §2

[5] = molecular target: T3, proteasome activity in HT-29 cells (Homo sapiens, UniProt P28074); experiment: Durability of binding in cells, wash-out assay (Proteasome-Glo), HT-29; type: cell-based; conditions: 2 hours incubation, washout
T3 construct: endogenous in cells; host or cells: HT-29
Description: The durability of binding of proteasome inhibitors was assessed in cells using wash-out assays and the Proteasome-Glo™ Reagent kit. THP-1 cells, HT-29 cells, or PBMC were incubated with an 8-fold dilution series of inhibitor for 2 hours. Following 2 hours of incubation, cells were washed using 3 occasions of centrifugation followed by resuspension in culture medium. Following inhibitor washout, cells were returned to culture for either 30 minutes, 4 hours, or 18 hours. Cells were then transferred to white 384 plates, and 20 uL of Proteasome-Glo™ Reagent was added to each well for 10 minutes. Plates were then read on an Analyst HT plate reader using luminescence mode. The percent inhibition of activity was plotted as a function of log compound concentration. The IC50 was then calculated for each compound using Prism software from GraphPad.

[6] = 30 minutes in culture, read-out: HT29 (30 min) IC50
[7] = 4 hours in culture, read-out: HT29 (4 h) IC50

Row | Structure (SMILES) | IC50 [1] | IC50 [2] | IC50 [3] | IC50 [4] | IC50 [5, 6] | IC50 [5, 7]
1 | Cc1ccc(CNC(=O)[C@H](COc2cccc(C=C(C#N)C(=O)N(C)C)c2)NC(=O)[C@@H](NC(=O)c2cc(C)on2)[C@@H](C)O)cc1 [Example 1, N-((2S,3R)-1-(((S)-3-(3-(2-cyano-3-(dimethylamino)-3-oxoprop-1-en-1-yl)phenoxy)-1-((4-methylbenzyl)amino)-1-oxopropan-2-yl)amino)-3-hydroxy-1-oxobutan-2-yl)-5-methylisoxazole-3-carboxamide] | 31 nM | 274 nM |  |  |  | 
2 | Cc1ccc(CNC(=O)[C@H](COc2cccc(C=C(C#N)C(=O)NC(C)(C)C)c2)NC(=O)[C@@H](NC(=O)c2cc(C)on2)[C@@H](C)O)c(F)c1 [Example 7, N-((2S,3R)-1-(((S)-3-(3-(3-(tert-butylamino)-2-cyano-3-oxoprop-1-en-1-yl)phenoxy)-1-((2-fluoro-4-methylbenzyl)amino)-1-oxopropan-2-yl)amino)-3-hydroxy-1-oxobutan-2-yl)-5-methylisoxazole-3-carboxamide] | 11 nM | 2140 nM |  |  |  | 
3 | Cc1ccc(CNC(=O)[C@H](COc2cccc(C=C(C#N)n3cncn3)c2)NC(=O)[C@@H](NC(=O)c2cc(C)on2)[C@@H](C)O)cc1 [Example 8a, N-((2S,3R)-1-(((S)-3-(3-(2-cyano-2-(1H-1,2,4-triazol-1-yl)vinyl)phenoxy)-1-((4-methylbenzyl)amino)-1-oxopropan-2-yl)amino)-3-hydroxy-1-oxobutan-2-yl)-5-methylisoxazole-3-carboxamide] | 17 nM | 120 nM | 200 nM | 10 nM | 580 nM | > 5000 nM
4 | Cc1ccc(CNC(=O)[C@H](CCc2cccc(C=C(C#N)C(=O)N(C)C)c2)NC(=O)[C@@H](NC(=O)c2cc(C)on2)[C@@H](C)O)cc1 [Example 15, N-((2S,3R)-1-(((S)-4-(3-(2-cyano-3-(dimethylamino)-3-oxoprop-1-en-1-yl)phenyl)-1-((4-methylbenzyl)amino)-1-oxobutan-2-yl)amino)-3-hydroxy-1-oxobutan-2-yl)-5-methylisoxazole-3-carboxamide] | 20 nM | 61 nM | 84 nM | 13 nM | > 5000 nM | > 5000 nM
5 | Cc1ccc(CNC(=O)[C@H](CCCCNC(=O)C(C#N)=CC(C)(C)C)NC(=O)[C@@H](C)NC(=O)c2cc(C)on2)cc1 [Example 21d, N—((R)-1-(((S)-6-(2-cyano-4,4-dimethylpent-2-enamido)-1-((4-methylbenzyl)amino)-1-oxohexan-2-yl)amino)-1-oxopropan-2-yl)-5-methylisoxazole-3-carboxamide] | 144 nM | 3950 nM |  |  |  | 
6 | Cc1ccc(CNC(=O)[C@H](Cc2cccc(N(C)C(=O)C(C#N)=CC(C)C)c2)NC(=O)[C@@H](NC(=O)c2cc(C)on2)[C@@H](C)O)c(F)c1 [Example 27, N-((2S,3R)-1-(((S)-3-(3-(2-cyano-N,4-dimethylpent-2-enamido)phenyl)-1-((2-fluoro-4-methylbenzyl)amino)-1-oxopropan-2-yl)amino)-3-hydroxy-1-oxobutan-2-yl)-5-methylisoxazole-3-carboxamide] | 21 nM | 147 nM | 360 nM | 13 nM | 3800 nM | > 5000 nM

Continued, values first:

Row | IC50 [1] | IC50 [2] | IC50 [3] | IC50 [4] | IC50 [5, 6] | IC50 [5, 7] | Structure (SMILES)
7 | 5 nM | 143 nM | 646 nM | 23 nM | > 5000 nM |  | Cc1ccc(CNC(=O)[C@H](CCCCNC(=O)C(C#N)=CC(C)C)NC(=O)[C@@H](NC(=O)c2cc(C)on2)[C@@H](C)O)cc1 [Example 21, N-((2S,3R)-1-(((S)-6-(2-cyano-4-methylpent-2-enamido)-1-((4-methylbenzyl)-amino)-1-oxohexan-2-yl)amino)-3-hydroxy-1-oxobutan-2-yl)-5-methylisoxazole-3-carboxamide]
8 | 37 nM | 704 nM |  |  |  |  | Cc1ccc(CNC(=O)[C@H](CCCCN(C)C(=O)C(C#N)=CC(C)C)NC(=O)[C@@H](NC(=O)c2cc(C)on2)[C@@H](C)O)cc1 [Example 22, N-((2S,3R)-1-(((S)-6-(2-cyano-N,4-dimethylpent-2-enamido)-1-((4-methylbenzyl)-amino)-1-oxohexan-2-yl)amino)-3-hydroxy-1-oxobutan-2-yl)-5-methylisoxazole-3-carboxamide]
9 | 64 nM | 3210 nM |  |  |  |  | Cc1ccc(CNC(=O)[C@H](Cc2cccc(NC(=O)C(C#N)=CC(C)C)c2)NC(=O)[C@@H](NC(=O)c2cc(C)on2)[C@@H](C)O)cc1 [Example 24, N-((2S,3R)-1-(((S)-3-(3-(2-cyano-4-methylpent-2-enamido)phenyl)-1-((4-methyl-benzyl)amino)-1-oxopropan-2-yl)amino)-3-hydroxy-1-oxobutan-2-yl)-5-methylisoxazole-3-carboxamide]
10 | 29 nM | 1450 nM | 1180 nM | 15 nM | > 5000 nM | > 5000 nM | Cc1ccc(CNC(=O)[C@H](Cc2cccc(N(C)C(=O)C(C#N)=CC(C)C)c2)NC(=O)[C@@H](NC(=O)c2cc(C)on2)[C@@H](C)O)cc1 [Example 25, N-((2S,3R)-1-(((S)-3-(3-(2-cyano-N,4-dimethylpent-2-enamido)phenyl)-1-((4-methylbenzyl)amino)-1-oxopropan-2-yl)amino)-3-hydroxy-1-oxobutan-2-yl)-5-methylisoxazole-3-carboxamide]
11 | 103 nM | 788 nM |  |  |  |  | Cc1ccc(CNC(=O)[C@H](CC2CCN(C(=O)C(C#N)=CC(C)C)CC2)NC(=O)[C@@H](NC(=O)c2cc(C)on2)[C@@H](C)O)cc1 [Example 29, N-((2S,3R)-1-(((S)-3-(1-(2-cyano-4-methylpent-2-enoyl)piperidin-4-yl)-1-((4-methylbenzyl)amino)-1-oxopropan-2-yl)amino)-3-hydroxy-1-oxobutan-2-yl)-5-methylisoxazole-3-carboxamide]
